This note sets out measurements from patent US12589101B2, “Cyclodextrin protein drug conjugates” (Regeneron Pharmaceuticals, Inc., priority 2017, dated 2026).

As usually defined, the solubility is how much of the substance goes into solution per volume. The EC50 is the midpoint of the concentration-response curve.

A short description of data set [1]: Solubility of linker-payloads (LC-MS standard curve, saturated solution). To be noted: aqueous with cosolvent or surfactant or cyclodextrin, thermodynamic from solid, in 10% DMSO/H2O; read-out: Solubility in other solvents. The class given is physicochemical.
A further data set relates to T1, LXR.
T1 construct: other: THP1/LXR-Luc/Her2 cells, 48-hour incubation, relative to free payload 1d; other: THP1/LXR-Luc/Her2 cells, 48-hour incubation; other: THP1/Her2/LXR-Luc cells; other: differentiated THP1/LXR-Luc cells, 48 hours; other: THP1/LXR-Luc cells, PMA
The experiment in a line: THP1/LXR-Luc/Her2 bioassay (LXR activation, luciferase). The class given is cell-based. Particulars: THP1/LXR-Luc/Her2 cells, 48-hour incubation. As to the method: To test the comparability of ADCs with and without CDs containing LXR agonists anti-HER2 Ab ADC with and without CD were tested for their ability to activate LXR in a THP1/LXR-Luc/Her2 bioassay. In the assay, either THP1/LXR-Luc cells or THP1/LXR-Luc/Her2 cells were seeded onto white 96 well plates at 30,000 cells/well in media containing RPMI supplemented with 10% FBS and pencillin/streptomycinin (complete media). Subsequently 3-fold serial dilutions of antibody drug conjugates, unconjugated antibodies, or free payloads were added to the cells at final concentration ranging from 100 nM to 0.01 nM. After a 48-hour incubation, luciferase activity was determined after the addition of One-Glo™ reagent (Promega, E6130) to each well of cells. Relative light units (RLUs) were measured on a Victor luminometer (PerkinElmer) and the EC50 values were determined using a four-parameter logistic equation over a 10-point dose response curve (GraphPad Prism).

Values after ≈ are worked out from the molar mass of the structure shown.

`CCCC1O[C@@H]2C[C@H]3[C@@H]4CCC5=CC(=O)C=C[C@]5(C)[C@H]4[C@@H](O)C[C@]3(C)[C@]2(C(=O)COc2ccc(NC(=O)[C@H](C)NC(=O)[C@@H](NC(=O)[C@@H](CCCCNC(=O)COC3CCCCCc4c3nnn4CC3OC4OC5C(CO)OC(OC6C(CO)OC(OC7C(CO)OC(OC8C(CO)OC(OC9C(CO)OC(OC3C(O)C4O)C(O)C9O)C(O)C8O)C(O)C7O)C(O)C6O)C(O)C5O)NC(=O)CCOCCOCCOCCOCCNC(=O)CCC(=O)N3Cc4ccccc4C#Cc4ccccc43)C(C)C)cc2)O1` (stereo partly drawn) [Ex46]: the solubility at 10 min in data set [1] is 100 µg/mL (≈ 39.7 µM).
Regarding `C[C@]1(C(=O)NC(=O)[C@@]2(C)CCC[C@]3(C)c4cc(O)ccc4CC[C@@H]23)CCC[C@]2(C)c3cc(N)ccc3CC[C@@H]12` [Example 1d, (1S,4aS,10aR)-N-[(1S,4aS,10aR)-6-Amino-1,4a-dimethyl-1,2,3,4,4a,9,10,10a-octahydrophenanthrene-1-carbonyl]-6-hydroxy-1,4a-dimethyl-1,2,3,4,4a,9,10,10a-octahydrophenanthrene-1-carboxamide], in the data set with LXR, the midpoint of the response, the EC50, lay at 2.8 nM. Besides, the Maximal activation entry with LXR (relative to free payload 1d) is “Full activation”.
